Data taken from patent US20210348164A1, “ENDOGENOUS CYTOPLASMIC ALU COMPLEMENTARY DNA IN AGE-RELATED MACULAR DEGENERATION” (University of Virginia Patent Foundation, priority 2018, published 2021).

System: Alu cDNA in ARPE-19 cells
Test: Alu cDNA in ARPE-19 cells (Alu c-PCR, in situ hybridization)
Format: cell-based, human
Conditions: heat shock or DICER1 AS, in situ hybridization
Protocol: Cell culture and transfection. Primary mouse and human RPE cells were isolated as previously described (Kerur et al., 2018). All cells were maintained at 37° C. in a 5% CO2 environment. Mouse RPE cells were cultured in DMEM supplemented with 20% FBS and penicillin/streptomycin antibiotics at standard concentrations; primary human RPE cells were maintained in DMEM supplemented with 10% FBS and antibiotics. The human RPE cell line ARPE19 was cultured as previously described (Kerur et al., 2018) and maintained in DMEM-F12 containing penicillin/streptomycin, Fungizone, and gentamicin. HEK293T cells were cultured in DMEM with 10% fetal bovine serum (FBS) with 100 U/ml penicillin/streptomycin and 2 mM L-glutamine. […]
In situ hybridization. […] Visualization of fluorescein-labelled probe was performed with the TSA™ plus fluorescence system or the TSA™ plus Cy5 system (PerkinElmer). The fluorescent or Cy5 signals were detected using a Leica SP-5 or MR Nikon confocal microscope system. […]

## L1 siRNA: siRNA targeting L1; cholesterol-conjugated mouse L1 siRNA (SEQ ID NOs: 48 and 49) in vivo, human L1 siRNA sequences in human cells (chain 1 ACUAUUACUCUGAUACCTT; chain 2 UGUACUAAGGUCAAAUCTT; cholesterol conjugated, position not given here)
  Alu cDNA induction: reduced Alu cDNA formation
